From a compilation of properties of binary mixtures (doi:10.1039/b303735e)

Assay: xn = mol fraction of the nth substance listed
Details: 298.15 K, 101.3 kPa

CCCC[n+]1ccn(C)c1.F[B-](F)(F)F + CC#N
Details	viscosity [mPa·s]
x2 = 0	110
x2 = 0.0982	70.9
x2 = 0.2265	40.3
x2 = 0.3047	27.7
x2 = 0.4554	13.2
x2 = 0.5059	10.22
x2 = 0.5469	8.25
x2 = 0.6005	6.07
x2 = 0.6441	4.58
x2 = 0.6973	3.34
x2 = 0.9513	0.593

CCCC[n+]1ccn(C)c1.F[B-](F)(F)F + CCC(C)=O
Details	viscosity [mPa·s]
x2 = 0	110

CC#N + CCCC[n+]1ccn(C)c1.F[B-](F)(F)F
Details	viscosity [mPa·s]
x1 = 1	0.341

CCC(C)=O + CCCC[n+]1ccn(C)c1.F[B-](F)(F)F
Details	viscosity [mPa·s]
x1 = 0.2004	42.2
x1 = 0.3969	15.2
x1 = 0.4495	11.97
x1 = 0.5	9.32
x1 = 0.5521	7.13
x1 = 0.6062	5.38
x1 = 0.6545	4.1
x1 = 0.8137	1.55
x1 = 0.8974	0.847
x1 = 0.9502	0.564
x1 = 1	0.373

ClCCl + CCCC[n+]1ccn(C)c1.F[B-](F)(F)F
Details	viscosity [mPa·s]
x1 = 0.199	37.2
x1 = 0.2854	26.3
x1 = 0.3985	17
x1 = 0.5452	10.05
x1 = 0.5958	7.69
x1 = 0.6471	5.92
x1 = 0.6958	4.6
x1 = 0.8019	2.59
x1 = 0.9015	1.12
x1 = 0.9477	0.715
x1 = 1	0.401

CCCC[n+]1ccn(C)c1.F[B-](F)(F)F + CN(C)C=O
Details	viscosity [mPa·s]
x2 = 0	110
x2 = 0.2041	52.2
x2 = 0.3024	32.9
x2 = 0.4061	20.8
x2 = 0.4408	17.6
x2 = 0.5052	12.7
x2 = 0.5459	11
x2 = 0.6014	7.8
x2 = 0.665	6.4
x2 = 0.701	5.04
x2 = 0.8008	2.91
x2 = 0.9005	1.6
x2 = 0.947	1.19

CCCC[n+]1ccn(C)c1.F[B-](F)(F)F + ClCCl
Details	viscosity [mPa·s]
x2 = 0	110
